Reference: patent publication US7544803B2, “Vanilloid receptor ligands and their use in treatments” (Amgen Inc., priority 2004, dated 2009)

| Structure (SMILES) | melting point [°C] |
| --- | --- |
| O=C(Nc1ccc2cccnc2c1)c1cc2ncc(C(F)(F)F)cc2s1 [Example 6, 6-Trifluoromethyl-thieno[3,2-b]pyridine-2-carboxylic acid quinolin-7-ylamide] | 296 |
| O=C(Nc1ccc2cccnc2c1)c1ccc2cc(Br)ccc2c1 [Example 32, 6-Bromo-naphthalene-2-carboxylic acid quinolin-7-ylamide] | 239.5 to 241.5 |
| O=C(Nc1ccc2cccnc2c1)c1cc2ccc(C(F)(F)F)cc2s1 | 229.7 |
| O=C(Nc1ccc2cccnc2c1)c1ccc2cc(Br)ccc2n1 [Example 36, 6-Bromo-quinoline-2-carboxylic acid quinolin-7-ylamide] | 156 to 157 |
